From patent EP2762573A1, “In vitro method for determining cholestatic properties of a compound” (priority 2013, dated 2014)
Each block holds one compound with its values, some of them ahead of it.

What was measured:
Conditions in all cases: male, C57BL/6, mouse
Bcl2l11 = assay: Biomarkers validation by q-pcr in precision cut liver slices: Bcl2l11 expression
Procedure: (§1) 23-weeks old male C57BL/6 mice were obtained from Harlan (Horst, The Netherlands). Animals were kept for 1 week at a housing temperature of 22°C and at a relative humidity of 30-70%. The lighting cycle was 12-h light and 12-h dark. At the age of 24 weeks animals were sacrificed by an overdose of isoflurane. The treatment protocol was approved by the Ethical Committee for Animal Experiments at Wageningen University.
(§2) Immediately after the animals were killed the liver was perfused with PBS and placed in ice-cold Krebs-Henseleit buffer (KHB) (pH 7.4, supplemented with 11 mM glucose). Liver tissue was transported to the laboratory within approximately 30 min and cylindrical liver cores were produced using a surgical biopsy punch with diameter of 5 mm (KAI, SynErgo Europe, Romania). Liver cores were placed in a Krumdieck tissue slicer (Alabama Research and Development, Munford, AL) filled with ice-cold KHB aerated with carbogen and supplemented with 11 mM glucose. Precesion cut liver slices (PCLS) with a diameter of 5 mm, a thickness of 0.2 mm and a weight of approximately 10 mg were prepared. Immediately after preparation, slices were transferred into culture plates filled with pre-warmed (37 degrees C) Williams E medium (WEM). Three liver slices were pre-cultured in one well of the 6-well plate filled with 4 ml of WEM for one hour with continuous shaking (70 rpm). Incubations were performed in an oxygen controlled incubator (Galaxy 48 R New Brunswick, Nijmegen, the Netherlands) at 80% of oxygen; 5% CO2 and the remaining gas volume was filled up to […] with N2. After one hour of pre-incubation, media were removed and replaced with fresh media containing test compounds or appropriate solvents. After incubations, samples were snap-frozen in liquid nitrogen and stored in -80 °C for further analysis. Samples dedicated to histology were stored in 4 % formaldehyde at room temperature.
(§3) PCLS were incubated at the same conditions as described above. Slices were exposed for 24 and 48 hours to one concentration of the tested compounds or controls. Concentrations used in the exposure experiments were preselected in the dose selection experiments for each drug individually. […] For the necrotic compounds: 1000 uM acetaminophen, 5 µM paraquat and 1000 uM isoniazid. Liver slices obtained from five mice were used in five toxic compound or control exposure experiments performed at the same time. Dose selection experiments and exposure experiments were performed at different days. Therefore, ATP, LDH, and protein assays were performed again for the exposure experiments to confirm that the selected doses did also not affect slice viability in these experiments.
(§4) In further studies, expression of ten candidate biomarkers in PCLS was analyzed by q-pcr using the Biorad CFX96 TM Real-Time Detection System (Bio-Rad, Veenendaal, The Netherlands) with the following cycling conditions: 15 min 95°C followed by 40 cycles of 15s 95 °C and 1 min 60 °C. Reactions were performed in 10 µl and contained 20 ng cDNA, 1x TaqMan PCR Master Mix (Applied Biosystems, Foster City, CA), and depending on the analysed gene, 250 nM probe and 900 nM primer (for actin b) or 1xTaqMan gene expression assay (for the remaining genes) (Applied Biosystems, foster City, CA).

Parp16 = assay: Biomarkers validation by q-pcr in precision cut liver slices: Parp16 expression
Procedure: as §1, §2, §3, §4

Mras = assay: Biomarkers validation by q-pcr in precision cut liver slices: Mras expression
Procedure: as §1, §2, §3, §4

Myo1e = assay: Biomarkers validation by q-pcr in precision cut liver slices: Myo1e expression
Procedure: as §1, §2, §3, §4

Nme6 = assay: Biomarkers validation by q-pcr in precision cut liver slices: Nme6 expression
Procedure: as §1, §2, §3, §4

ABCG5 = assay: Biomarkers validation by q-pcr in precision cut liver slices: ABCG5 expression
Procedure: as §1, §2, §3, §4

ABCG8 = assay: Biomarkers validation by q-pcr in precision cut liver slices: ABCG8 expression
Procedure: as §1, §2, §3, §4

SERPINE1 = assay: Biomarkers validation by q-pcr in precision cut liver slices: SERPINE1 expression
Procedure: as §1, §2, §3, §4

BAAT = assay: Biomarkers validation by q-pcr in precision cut liver slices: BAAT expression
Procedure: as §1, §2, §3, §4

KLF15 = assay: Biomarkers validation by q-pcr in precision cut liver slices: KLF15 expression
Procedure: as §1, §2, §3, §4

PCLS = assay: Cytotoxicity analysis - dose selection experiments (LDH, ATP, protein assay)
Procedure: as §1, §2, §3

*fold change 1, gene expression level Bcl2111 (Bcl2l11): 1,9
*fold change 2, gene expression level Bcl2111 (Bcl2l11): 1,1
*fold change 3, gene expression level Bcl2111 (Bcl2l11): 2,0
*fold change 4, gene expression level Bcl2111 (Bcl2l11): 2,4
*fold change 5, gene expression level Bcl2111 (Bcl2l11): 1,7
*fold change 1, gene expression level Parp 16 (Parp16): 1,4
*fold change 2, gene expression level Parp 16 (Parp16): -1,3
*fold change 3, gene expression level Parp 16 (Parp16): 1,4
*fold change 4, gene expression level Parp 16 (Parp16): 1,5
*fold change 5, gene expression level Parp 16 (Parp16): 1,6
*fold change 1, gene expression level Mras (Mras): 1,7
*fold change 2, gene expression level Mras (Mras): -1,0
*fold change 3, gene expression level Mras (Mras): 1,3
*fold change 4, gene expression level Mras (Mras): 1,2
*fold change 5, gene expression level Mras (Mras): 1,4
*fold change 1, gene expression level Myo 1e (Myo1e): 1,1
*fold change 2, gene expression level Myo 1e (Myo1e): -1,2
*fold change 3, gene expression level Myo 1e (Myo1e): 1,4
*fold change 4, gene expression level Myo 1e (Myo1e): 1,4
*fold change 5, gene expression level Myo 1e (Myo1e): 1,4
*fold change 1, gene expression level Nme6 (Nme6): -1,2
*fold change 2, gene expression level Nme6 (Nme6): -1,2
*fold change 3, gene expression level Nme6 (Nme6): -1,1
*fold change 4, gene expression level Nme6 (Nme6): -1,3
*fold change 5, gene expression level Nme6 (Nme6): 1,0
*fold change 1, gene expression level ABCG5 (ABCG5): -2,1
*fold change 2, gene expression level ABCG5 (ABCG5): -1,3
*fold change 3, gene expression level ABCG5 (ABCG5): 1,4
*fold change 4, gene expression level ABCG5 (ABCG5): -1,4
*fold change 5, gene expression level ABCG5 (ABCG5): 1,1
*fold change 1, gene expression level ABCG8 (ABCG8): -1,7
*fold change 2, gene expression level ABCG8 (ABCG8): -1,2
*fold change 3, gene expression level ABCG8 (ABCG8): 1,4
*fold change 4, gene expression level ABCG8 (ABCG8): -1,1
*fold change 5, gene expression level ABCG8 (ABCG8): 1,4
*fold change 1, gene expression level SERPINE1 (SERPINE1): -1,6
*fold change 2, gene expression level SERPINE1 (SERPINE1): -1,4
*fold change 3, gene expression level SERPINE1 (SERPINE1): 1,2
*fold change 4, gene expression level SERPINE1 (SERPINE1): -1,3
*fold change 5, gene expression level SERPINE1 (SERPINE1): 1,5
*fold change 1, gene expression level BAAT (BAAT): -5,0
*fold change 2, gene expression level BAAT (BAAT): -2,0
*fold change 3, gene expression level BAAT (BAAT): -1,4
*fold change 4, gene expression level BAAT (BAAT): -2,8
*fold change 5, gene expression level BAAT (BAAT): -1,5
*fold change 1, gene expression level KLF15 (KLF15): -1,5
*fold change 2, gene expression level KLF15 (KLF15): -1,2
*fold change 3, gene expression level KLF15 (KLF15): -1,4
*fold change 4, gene expression level KLF15 (KLF15): -1,1
*fold change 5, gene expression level KLF15 (KLF15): 1,2
Structure (SMILES): CC(=O)Nc1ccc(O)cc1 [APAP, acetaminophen]
highest concentration that did not cause significant increase of toxicity (PCLS): 1000 µM

Structure (SMILES): CCCC(CCC)C(=O)O [VA, valproic acid]
highest concentration that did not cause significant increase of toxicity (PCLS): 200 µM
